Experiments:
[1] = tested on: human foreskin fibroblasts (hFFs); test: Reprogramming efficiency of human fibroblasts into induced pluripotent stem cells (AP-positive colonies); assay type: cell-based; conditions: for efficiency of reprogramming by timing of treatment: 1 mM
Description: Reprogramming efficiency was determined by measuring the number of colonies showing a positive response in the pluripotency-specific marker alkaline phosphatase (AP) staining and having hESC-like morphology. For production of iPSC, human foreskin fibroblasts (hFFs) were seeded on gelatin-coated 6-well plates at a concentration of 1×10^5 cells per well at 6 hours before transfection and were transfected with virus in the presence of polybrene (6 μg/ml). At 5 days after the transfection, the hFFs were collected by trypsin treatment and reseeded on Matrigel-coated 6-well plates at a concentration of 5-6×10^4 cells per well in order to perform experiments in feeder-free conditions. The medium was replaced with MEF-CM medium containing 10 ng/ml of bFGF. The medium was replaced at 2-day intervals. At 20 days after the transfection, hESC-like colonies were collected and transferred to 12-well plates having MEFs as feeder cells, and then the colonies were continuously cultured using the hESC culture method described in Example 1. In order to measure the efficiency of reprogramming into human induced pluripotent stem cells, the number of colonies stained with the embryonic stem cell marker ALP on the Matrigel-coated 6-well plate was counted, and the efficiency of reprogramming was calculated. Each experiment was performed in triplicate. AP staining was performed using a commercial AP kit (Sigma) according to the manufacturer's instruction. Images of AP-positive cells were recorded with HP Scanjet G4010. Also, bight field images were obtained with an Olympus microscope (IX51, Olympus, Japan). In order to examine the change in reprogramming efficiency of human fibroblasts caused by nicotinamide, retrovirus expressing the reprogramming factors Oct4, Sox2, Klf4 and c-Myc was transfected at an MOI of 1. Reprogramming efficiencies caused by the addition of nicotinamide and other NAD precursors were examined.

[2] = tested on: H9 human embryonic stem cells; test: BrdU incorporation assay in human embryonic stem cells in mTeSR1; assay type: cell-based
Description: For 5-bromo)-2-deoxyuridine (BrdU; BD Pharmingen, San Diego) incorporation assays, human embryonic stem cells were cultured on Matrigel-coated 4-well LabTec chamber slides for 4 days.
Specifically, for BrdU incorporation, cells were incubated in the presence of 30 μM BrdU at 37° C. for 1 hour. After washing with PBS, the cells were fixed with 4% paraformaldehyde for 15 minutes and reacted in 1N HCl at room temperature for 15 minutes. The sample was washed and reacted with 0.1 M sodium tetraborate for 15 minutes. After washing, the cells were reacted with anti-BrdU antibody in 3% BSA-containing PBS for 1 hour, and then reacted with FITC-conjugated secondary antibody for 30 minutes.
In order to verify the effect of nicotinamide on the proliferation of pluripotent stem cells, a BrdU incorporation assay was performed. Nicotinamide was added to mTeSR1 (CDM) at various concentrations, and the effects thereof were examined.

[3] = tested on: H9 human embryonic stem cells; test: Mitochondrial membrane potential of human embryonic stem cells by JC-1 staining; assay type: cell-based; conditions: 0.1 mM nicotinamide in mTeSR1
Description: In an example of the present invention, the membrane potential (ΔΨm) of mitochondria was measured after treatment with nicotinamide. When human embryonic stem cells were maintained and cultured, the membrane potential of mitochondria in the human embryonic stem cells was measured by JC-1 staining after addition of various concentrations of nicotinamide to mTeSR1. After JC-1 staining, activated mitochondria are stained with red, and non-activated mitochondria are stained with green. The ratio of the number of red-stained mitochondria to the number of green-stained mitochondria is measured, and an increase in the ratio indicates an increase in activated mitochondria.
In addition, the present inventors measured the membrane potential (ΔΨm) of mitochondria. When human embryonic stem cells were maintained and cultured, various concentrations of nicotinamide were added to mTeSR1, and then the mitochondrial membrane potential of the human embryonic stem cells was measured by JC-1 staining. After JC-1 staining, activated mitochondria are stained with red, and non-activated mitochondria are stained with green. The ratio of the number of red-stained mitochondria to the number of green-stained mitochondria is measured, and an increase in the ratio indicates an increase in the number of activated mitochondria.

[4] = tested on: human fibroblasts transfected with reprogramming factor OSKM; test: Quantification of protein damage caused by oxidative stress; assay type: cell-based; conditions: 1 mM
Description: On days 12, 19 and 26 of induction of reprogramming, protein was isolated from a control group and a nicotinamide-treated group (Nam), after which it was quantified and treated with 2,4-dinitrophenylhydrazine to expose the carbonyl group. The protein was separated according to molecular weight using 10% SDS-polyacrylamide gel, and then protein damage caused by oxidative stress was analyzed using dinitrophenyl antibody. After normalization to the expression level of β-actin, the degree of damage was quantified relative to the degree of damage to hFFs taken as 1.

[5] = tested on: promoter regions of Nanog and Oct4; test: Chromatin immunoprecipitation of histone 3 methylation at Nanog and Oct4 promoters; assay type: cell-based, human
Description: Formaldehyde was added to a cell culture to fix the cells, and then the chromatin was fragmented to a suitable size by sonication. The chromatin was immunoprecipitated with antibodies to lysine residues 4 and 27 of histone 3, and then the DNA was collected and amplified by real-time polymerase chain reaction using primers for the Oct4 and Nanog promoter regions.

[6] = tested on: H9 human embryonic stem cells and human induced pluripotent stem cells; test: Low-density cloning after single-cell dissociation (AP staining, apoptosis); assay type: cell-based; conditions: AP staining and apoptosis assays
Description: In order to examine the effect of nicotinamide on a reduction in the apoptosis of human pluripotent stem cells, dual apoptosis assay (Biotium, Hayward, Calif.) was performed. Embryonic stem cells or cells reprogrammed were stained with NucView™488 Caspase-3 Substrate (green)/Annextin V (red) at room temperature for 30 minutes, followed by washing with PBS. At least 4 sections of each sample were imaged with an Olympus fluorescence microscope (IX51, Olympus), and the number of cells stained with green (Caspase-3) was counted to quantify the degree of apoptosis.
In order to examine the effect of nicotinamide on the survival of human pluripotent stem cells at low density, human pluripotent stem cells were treated with TrypLE reagent (Invitrogen) for 3 minutes, and then dissociated into single cells by pipetting and seeded on a Matrigel-coated 96-well plate at a density of 500 cells per well. After 5 days of culture, human pluripotent stem cell colonies started to be formed, and the cells were fixed with 4% paraformaldehyde, and then AP staining was performed or the level of apoptosis was measured.

[7] = tested on: human pluripotent stem cells; test: Long-term subculture in UM with nicotinamide (TRA-1-60 staining, karyotyping); assay type: cell-based

karyotype after long-term subculture ([7]; nicotinamide-containing medium): normal karyotypes
SMILES: NC(=O)c1cccnc1 [nicotinamide]
increase in reprogramming efficiency (AP-positive colonies) ([1]; 0.1 mM nicotinamide, compared to untreated group): 13 times
increase in reprogramming efficiency (AP-positive colonies) ([1]; 1 mM nicotinamide, compared to untreated group): 28 times
increase in reprogramming efficiency (AP-positive colonies) ([1]; 10 mM nicotinamide, compared to untreated group): 16 times
increase in reprogramming efficiency (AP-positive colonies) ([1]; 20 mM nicotinamide, compared to untreated group): 2 times
increase in reprogramming efficiency (AP-positive colonies) ([1]; compared to the addition of other NAD precursors, OSKM retrovirus MOI 1): about 17 times
efficiency of reprogramming by timing of treatment ([1]; continuous treatment throughout the process of inducing reprogramming): highest increase
reprogramming efficiency, same cell number reseeded ([1]; nicotinamide for 5 days after infection, not added after reseeding, vs untreated control): increase in reprogramming efficiency
reprogramming efficiency, same cell number reseeded ([1]; nicotinamide only after reseeding (21 days), not in initial stage, vs untreated): increase in reprogramming efficiency
efficiency of reprogramming by timing of treatment ([1]; treatment in initial stage immediately after viral infection): most effectively increased
increase in BrdU incorporation ([2]; 0.1 mM in mTeSR1, compared to cells cultured in mTeSR1): 1.6 times
increase in BrdU incorporation ([2]; 1 mM in mTeSR1, compared to cells cultured in mTeSR1): 1.2 times
number of activated mitochondria / mitochondrial membrane potential (JC-1 red/green) [3]: significantly increased
amount of damaged protein (oxidative stress) [4]: decreased
methylation of lysine residue 4 of histone 3 in promoter regions of Nanog and Oct4 [5]: increased
methylation of residue 27 of histone 3 in promoter regions of Nanog and Oct4 [5]: decreased
survival and self-renewal abilities at low density after single-cell dissociation [6]: significantly increased
passages subcultured in an undifferentiated state ([7]; UM with 0.1 mM nicotinamide, TRA-1-60 staining): ≥ 10 passages

From patent publication US20150072416A1, “METABOLITE FOR IMPROVING PRODUCTION, MAINTENANCE AND PROLIFERATION OF PLURIPOTENT STEM CELLS, COMPOSITION COMPRISING THE SAME, AND METHOD OF CULTURING PLURIPOTENT STEM CELL USING THE SAME” (KOREA RESEARCH INSTITUTE OF BIOSCIENCE AND BIOTENOLOGY, priority 2012, published 2015)
